In ChEMBL document CHEMBL1123148, “Improved synthesis of 2'-deoxyformycin A and studies of its in vitro activity against mouse lymphoma of T-cell origin” (J Med Chem, 1985):

Experiments:
[1] = Compound evaluated for the inhibitory concentration of S49 Mouse Lymphoma T-cells; assay type: functional, cell-based
[2] = Compound along with 10 uM of erythro-9-(2-hydroxy-3-nonyl)adenine (EHNA) was tested against mouse lymphoma T-cells; assay type: functional

| IC50 [1] [µM] | IC50 [2] [µM] | Structure (SMILES) |
| --- | --- | --- |
| 13.5 | 9.3 | Nc1ncnc2c([C@H]3C[C@H](O)[C@@H](CO)O3)n[nH]c12 |
| 180 | 4.5 | Nc1ncnc2c1ncn2[C@H]1C[C@H](O)[C@@H](CO)O1 [DEOXYADENOSINE] |
| 2.3 | 0.03 | Nc1ncnc2c([C@@H]3O[C@H](CO)[C@@H](O)[C@H]3O)[nH]nc12 [FORMYCIN] |
